# Laboratory results from US12714715B2, “Agent for treating myopia, preventing myopia and/or suppressing myopia progression” (SANTEN PHARMACEUTICAL CO., LTD., priority 2020, dated 2026).
# Legend:
# [1] = system: guinea pig myopia model; assay: Test on suppression of myopia progression (axial length elongation and refractive error) in guinea pig myopia model; type: in vivo, guinea pig (Slc:Hartley); details: for Difference of axial lengths / Difference of refraction: 10 μL topical to goggled right eye once daily 14 days, right eye − left eye, average n=6; for Difference of axial lengths / Difference of refraction / Suppression rate of axial length elongation / Suppression rate of refractive error: day 14; for Suppression rate of axial length elongation / Suppression rate of refractive error: vs vehicle control group
# Protocol: According to the following procedures, the effect of AFDX0250 on the suppression of myopia progression (the axial length elongation and the refractive error) was evaluated.
# AFDX0250 was dissolved in purified water with a buffering agent and a tonicity agent to prepare 0.5% AFDX0250 solution. 1 mol/L sodium hydroxide reagent solution or dilute hydrochloric acid was added to the solution to adjust the pH thereof to neutral. Also, a buffering agent and a tonicity agent were dissolved in purified water to prepare a neutral vehicle. 9.8 mL of the vehicle was mixed with 0.2 mL of 0.5% AFDX0250 solution and stirred to prepare 0.01% AFDX0250 solution. 3 mL, 4 mL and 4.5 mL of the vehicles were mixed with 2 mL, 1 mL and 0.5 mL of 0.01% AFDX0250 solutions, respectively, and stirred to prepare 0.004%, 0.002% and 0.001% AFDX0250 solutions.
# A test tube with a diameter of 18 mm was cut off at the level of 10 mm from the bottom, and the cut-off bottom part was glued to one side of Velcro tape (about 20 mm square) with a hole of an appropriate diameter in the center with an adhesive agent to prepare a lens (goggle). 3-week-old guinea pigs (Slc:Hartley) (n=30) were obtained, and the prepared goggle was covered to the right eye of each guinea pig with an adhesive agent to induce myopia to the guinea pigs. The left eye thereof without goggle was used as control.
# The […] group, 0.004% AFDX0250 solution administration group, […] group (control group) (n=6 per group). In the AFDX0250 solution administration groups, 10 μL of the AFDX0250 solution in each concentration was topically administered to the right eye of each guinea pig once daily for 14 days from the day when the right eye was covered with the goggle (day 0) to day 13. In the control group, 10 μL of the vehicle was topically administered to the right eye of each guinea pig once daily for 14 days from the day when the right eye was covered with the goggle (day 0) to day 13. In the all groups, 10 μL of the vehicle was topically administered to the left eye at the same frequency of administration as that of each group daily for 14 days from day 0 to day 13. The guinea pigs were reared under a normal rearing condition.
# On day 14 from the myopia induction, the axial lengths of right and left eyeballs were measured with an ultrasound axial length measurement device ECHOSCAN US-500 (A-scan) (NIDEK CO., LTD.), and the refractions were measured with the auto refractometer AR-1a (NIDEK CO., LTD.). The difference of axial lengths and the suppression rate of the axial length elongation as well as the difference of refraction and the suppression rate of the refractive error were calculated according to the following formulae. The calculation was performed in Microsoft Excel. Difference of axial lengths (mm)=Axial length of right eye (mm)−Axial length of left eye (mm) Suppression rate of axial length elongation (%)=(1−Difference of axial lengths in AFDX0250 solution administration group/Difference of axial lengths in control group)×100 (Formula) Difference of refraction (D)=Refraction of right eye (D)−Refraction of left eye (D) Suppression rate of refractive error (%)=(1−Difference of refraction in AFDX0250 solution administration group/Difference of refraction in control group)×100 (Formula) (Test Result)
# AFDX0250 was dissolved in purified water with a buffering agent and a tonicity agent to prepare 0.5% AFDX0250 solution. 1 mol/L sodium hydroxide reagent solution or dilute hydrochloric acid was added to the solution to adjust the pH thereof to neutral. Also, a buffering agent and a tonicity agent were dissolved in purified water to prepare a neutral vehicle. 4 mL and 4.8 mL of vehicles were mixed with 1 mL and 0.2 mL of 0.5% AFDX0250 solutions, respectively, and stirred to prepare 0.1% and 0.02% of AFDX0250 solutions. Also, 4 mL of the vehicle was mixed with 1 mL of 0.02% AFDX0250 solution and stirred to prepare 0.004% AFDX0250 solution. […]
# [2] = system: guinea pigs; assay: Evaluation of mydriatic action (pupil diameter, pupillary light reflex) after repeated topical administration to one eye; type: in vivo, guinea pig; details: guinea pig, in vivo
# Protocol: An atropine solution was repeatedly topically administered to one eye of a guinea pig to evaluate the effect of the solution on mydriasis.
# Atropine sulfate hydrate and glycerin were dissolved in water for injection to prepare 0.001%, 0.0003% and 0.0001% atropine solutions without adjusting the pH.
# Each of the prepared solutions was topically administered to the left eye of guinea pigs (the left eyes of 3 guinea pigs for each solution) in a volume of 10 μL once daily for 5 days. The pupil diameter of each guinea pig was measured before the administration on day 5 as well as 1, 2 and 4 hours after the administration to observe the pupillary light reflex. The measured pupil diameters of each guinea pig at each measurement time were averaged to obtain the average value. The obtained average value was defined as the average pupil diameter. Among each average pupil diameter at each measurement time, the longest diameter was defined as the maximum pupil diameter.
# [3] = Comparative Example 1, 0.004% solution
# [4] = Comparative Example 1, 0.004% solution, topical once daily 14 days
# [5] = Comparative Example 1, 0.02% solution
# [6] = Comparative Example 1, 0.02% solution, topical once daily 14 days
# [7] = Comparative Example 1, 0.1% solution
# [8] = Comparative Example 1, 0.1% solution, topical once daily 14 days
# [9] = Comparative Example 1, 0.5% solution
# [10] = Comparative Example 1, 0.5% solution, topical once daily 14 days
# [11] = Comparative Example 2, 0.004% solution
# [12] = Comparative Example 2, 0.004% solution, topical once daily 14 days
# [13] = Comparative Example 2, 0.01% solution
# [14] = Comparative Example 2, 0.01% solution, topical once daily 14 days
# [15] = Comparative Example 2, 0.02% solution
# [16] = Comparative Example 2, 0.02% solution, topical once daily 14 days
# [17] = Comparative Example 2, 0.1% solution
# [18] = Comparative Example 2, 0.1% solution, topical once daily 14 days
smiles,measurement,setting,value
"CCN(CC)CC1CCCCN1CC(=O)N1c2ccccc2C(=O)Nc2cccnc21 (stereo not drawn) [AFDX0116, 11-[2-[2-[(diethylamino)methyl]-1-piperidinyl]acetyl]-5,11-dihydro-6H-pyrido[2,3-b][1,4]benzodiazepin-6-one]",Difference of axial lengths,[1]; [3],0.19 mm
same,Difference of refraction,[1]; [3],−4.74 D
same,Suppression rate of axial length elongation,[1]; [4],21.14%
same,Suppression rate of refractive error,[1]; [4],45.54%
same,Difference of axial lengths,[1]; [5],0.09 mm
same,Difference of refraction,[1]; [5],−2.17 D
same,Suppression rate of axial length elongation,[1]; [6],62.95%
same,Suppression rate of refractive error,[1]; [6],73.10%
same,Difference of axial lengths,[1]; [7],0.09 mm
same,Difference of refraction,[1]; [7],−1.90 D
same,Suppression rate of axial length elongation,[1]; [8],63.86%
same,Suppression rate of refractive error,[1]; [8],73.17%
same,Difference of axial lengths,[1]; [9],0.03 mm
same,Difference of refraction,[1]; [9],−2.10 D
same,Suppression rate of axial length elongation,[1]; [10],87.73%
same,Suppression rate of refractive error,[1]; [10],75.86%
same,Difference of axial lengths,[1]; [11],0.12 mm
same,Difference of refraction,[1]; [11],−6.59 D
same,Suppression rate of axial length elongation,[1]; [12],22.52%
same,Suppression rate of refractive error,[1]; [12],9.96%
same,Difference of axial lengths,[1]; [13],0.12 mm
same,Difference of refraction,[1]; [13],−3.61 D
same,Suppression rate of axial length elongation,[1]; [14],21.44%
same,Suppression rate of refractive error,[1]; [14],50.71%
same,Difference of axial lengths,[1]; [15],0.05 mm
same,Difference of refraction,[1]; [15],−2.52 D
same,Suppression rate of axial length elongation,[1]; [16],69.73%
same,Suppression rate of refractive error,[1]; [16],65.61%
same,Difference of axial lengths,[1]; [17],0.05 mm
same,Difference of refraction,[1]; [17],−2.42 D
same,Suppression rate of axial length elongation,[1]; [18],68.65%
same,Suppression rate of refractive error,[1]; [18],66.87%
same,Concentration showing the anti-myopic effect (comparison in words),[1]; Comparative Examples 1 and 2 compared with Examples 1 and 2,higher than that of AFDX0250
same,Effect on the axial length elongation and the refractive error (summary in words),"[1]; summary of Examples 1 and 2 (AFDX0250) and Comparative Examples 1 and 2 (AFDX0116), topical once daily 14 days",suppressed the axial length elongation and the refractive error
same,"Mydriatic action (pupil diameter and pupillary light reflex, in words)",[2],increased the pupil diameter and decreased the pupillary light reflex
same,Measurement time of maximum pupil diameter,[2]; 5 days,2 h
